The source of these data is patent US6743211B1, “Devices and methods for enhanced microneedle penetration of biological barriers” (Georgia Tech Research Corporation, priority 1999, dated 2004).

Each structure is given as a SMILES string.

The format of the data set is in vitro ADME, human. How it is done:
To determine if microfabricated microneedles could be used to enhance transdermal drug delivery, arrays of microneedles were made using a deep plasma etching technique. Their ability to penetrate human skin without breaking was tested and the resulting changes in transdermal transport were measured.
Arrays of microneedles were fabricated having extremely sharp tips (radius of curvature less than 1 μm), and are approximately 150 μm long. Because the skin surface is not flat due to dermatoglyphics and hair, the full length of these microneedles will not penetrate the skin. All experiments were performed at room temperature (23±2° C.).
To quantitatively assess the ability of microneedles to increase transdermal transport, calcein permeability of human epidermis with and without inserted microneedle arrays was measured. Calcein crosses skin very poorly under normal circumstances and therefore represents an especially difficult compound to deliver.
Insertion of microneedles into skin was capable of dramatically increasing permeability to calcein. When microneedles were inserted and left embedded in the skin, calcein permeability was increased by more than 1000-fold. Insertion of microneedles for 10 s, followed by their removal, yielded an almost 10,000-fold increase. […]

Turning to `O=C(O)CN(CC(=O)O)Cc1cc2c(cc1O)Oc1cc(O)c(CN(CC(=O)O)CC(=O)O)cc1C21OC(=O)c2ccccc21` [Calcein], the “Passive permeability across unaltered skin” value is “very low”. The “Increase in skin permeability to calcein” value (human) is given as “about 25,000 fold”.
